In general, DC50 refers to the midpoint of the concentration-degradation curve. Read a low DC50 as a more potent degrader. A word on the Dmax: it is the largest share of the target that was removed.

These results are taken from patent US20250051344A1, “BIFUNCTIONAL SELECTIVE DEGRADERS OF SMARCA2 AND THERAPEUTIC USES THEREOF” (Nurix Therapeutics, Inc., priority 2023, published 2025).

In one experiment the target is T1, SMARCA2 (Homo sapiens, UniProt P51531).
T1 construct: endogenous in cells
As to the kind of experiment: SMARCA2 Cellular Degradation Assay (Western blot analysis on Jess platform). It is filed as cell-based. To be noted: for DC50 / Dmax: cellular degradation; for Fold Selectivity SMARCA4/2: ratio DC50 SMARCA4 / DC50 SMARCA2. The method, boiled down: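 Tumor-derived cell pellets (5×10E5-1×10E6 live cells) lysed in RIPA + 0.2% SDS, phosphatase/protease inhibitors, benzonase; 5 μg protein/capillary on Jess; chemiluminescence/fluorescence immunoassay; SMARCA2/actin peak area, % of vehicle.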
In general terms: In western blotting, separated proteins are transferred to a membrane and probed.

The target in the next experiment is T2, SMARCA4 (Homo sapiens, UniProt P51532).
T2 construct: endogenous in cells
T2 sequence (P51532 whole entry, species assumed): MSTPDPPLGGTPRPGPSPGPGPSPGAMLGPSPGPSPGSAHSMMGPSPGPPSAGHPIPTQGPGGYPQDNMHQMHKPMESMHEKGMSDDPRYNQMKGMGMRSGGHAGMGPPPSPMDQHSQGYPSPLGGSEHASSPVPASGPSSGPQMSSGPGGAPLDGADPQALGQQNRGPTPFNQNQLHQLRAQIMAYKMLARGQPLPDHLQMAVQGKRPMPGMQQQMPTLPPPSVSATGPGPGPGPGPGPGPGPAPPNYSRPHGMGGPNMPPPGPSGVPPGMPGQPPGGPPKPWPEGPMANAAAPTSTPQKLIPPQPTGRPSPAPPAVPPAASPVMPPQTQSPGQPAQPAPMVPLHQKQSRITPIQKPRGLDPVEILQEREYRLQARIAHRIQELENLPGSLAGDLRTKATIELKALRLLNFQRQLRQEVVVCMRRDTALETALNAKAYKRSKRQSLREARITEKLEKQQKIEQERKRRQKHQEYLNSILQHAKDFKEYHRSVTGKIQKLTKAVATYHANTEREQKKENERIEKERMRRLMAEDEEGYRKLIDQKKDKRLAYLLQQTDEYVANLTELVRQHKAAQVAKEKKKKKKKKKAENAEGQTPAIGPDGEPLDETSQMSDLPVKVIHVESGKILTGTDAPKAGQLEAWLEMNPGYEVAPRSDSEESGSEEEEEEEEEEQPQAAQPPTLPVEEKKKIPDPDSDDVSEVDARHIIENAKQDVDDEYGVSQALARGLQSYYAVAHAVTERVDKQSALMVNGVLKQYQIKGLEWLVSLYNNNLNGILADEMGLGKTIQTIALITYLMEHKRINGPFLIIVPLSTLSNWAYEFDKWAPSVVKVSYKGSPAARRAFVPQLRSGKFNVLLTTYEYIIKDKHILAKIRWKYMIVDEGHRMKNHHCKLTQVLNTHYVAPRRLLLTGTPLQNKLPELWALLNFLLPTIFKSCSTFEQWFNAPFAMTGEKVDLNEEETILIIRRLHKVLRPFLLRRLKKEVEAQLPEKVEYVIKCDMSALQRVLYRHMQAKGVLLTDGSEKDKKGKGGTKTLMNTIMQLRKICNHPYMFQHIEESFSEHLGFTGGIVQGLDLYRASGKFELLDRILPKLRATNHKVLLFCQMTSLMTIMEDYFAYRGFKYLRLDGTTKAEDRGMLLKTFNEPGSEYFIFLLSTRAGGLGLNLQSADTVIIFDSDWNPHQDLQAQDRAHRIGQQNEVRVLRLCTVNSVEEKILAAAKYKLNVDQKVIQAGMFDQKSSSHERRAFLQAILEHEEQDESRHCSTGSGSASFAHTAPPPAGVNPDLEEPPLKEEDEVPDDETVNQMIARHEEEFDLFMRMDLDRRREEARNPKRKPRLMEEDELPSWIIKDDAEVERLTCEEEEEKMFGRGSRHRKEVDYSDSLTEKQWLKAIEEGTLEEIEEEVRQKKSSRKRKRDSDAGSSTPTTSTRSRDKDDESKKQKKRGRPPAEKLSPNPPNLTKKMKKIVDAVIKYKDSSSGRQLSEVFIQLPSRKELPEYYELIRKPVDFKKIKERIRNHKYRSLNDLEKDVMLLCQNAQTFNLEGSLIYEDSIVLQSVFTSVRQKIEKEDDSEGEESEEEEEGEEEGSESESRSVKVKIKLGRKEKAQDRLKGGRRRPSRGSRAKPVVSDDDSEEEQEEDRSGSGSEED
Kind of experiment: Cellular degradation assay, SMARCA4 (Table 1). It is filed as cell-based.

T1 sequence (P51531 whole entry, species assumed): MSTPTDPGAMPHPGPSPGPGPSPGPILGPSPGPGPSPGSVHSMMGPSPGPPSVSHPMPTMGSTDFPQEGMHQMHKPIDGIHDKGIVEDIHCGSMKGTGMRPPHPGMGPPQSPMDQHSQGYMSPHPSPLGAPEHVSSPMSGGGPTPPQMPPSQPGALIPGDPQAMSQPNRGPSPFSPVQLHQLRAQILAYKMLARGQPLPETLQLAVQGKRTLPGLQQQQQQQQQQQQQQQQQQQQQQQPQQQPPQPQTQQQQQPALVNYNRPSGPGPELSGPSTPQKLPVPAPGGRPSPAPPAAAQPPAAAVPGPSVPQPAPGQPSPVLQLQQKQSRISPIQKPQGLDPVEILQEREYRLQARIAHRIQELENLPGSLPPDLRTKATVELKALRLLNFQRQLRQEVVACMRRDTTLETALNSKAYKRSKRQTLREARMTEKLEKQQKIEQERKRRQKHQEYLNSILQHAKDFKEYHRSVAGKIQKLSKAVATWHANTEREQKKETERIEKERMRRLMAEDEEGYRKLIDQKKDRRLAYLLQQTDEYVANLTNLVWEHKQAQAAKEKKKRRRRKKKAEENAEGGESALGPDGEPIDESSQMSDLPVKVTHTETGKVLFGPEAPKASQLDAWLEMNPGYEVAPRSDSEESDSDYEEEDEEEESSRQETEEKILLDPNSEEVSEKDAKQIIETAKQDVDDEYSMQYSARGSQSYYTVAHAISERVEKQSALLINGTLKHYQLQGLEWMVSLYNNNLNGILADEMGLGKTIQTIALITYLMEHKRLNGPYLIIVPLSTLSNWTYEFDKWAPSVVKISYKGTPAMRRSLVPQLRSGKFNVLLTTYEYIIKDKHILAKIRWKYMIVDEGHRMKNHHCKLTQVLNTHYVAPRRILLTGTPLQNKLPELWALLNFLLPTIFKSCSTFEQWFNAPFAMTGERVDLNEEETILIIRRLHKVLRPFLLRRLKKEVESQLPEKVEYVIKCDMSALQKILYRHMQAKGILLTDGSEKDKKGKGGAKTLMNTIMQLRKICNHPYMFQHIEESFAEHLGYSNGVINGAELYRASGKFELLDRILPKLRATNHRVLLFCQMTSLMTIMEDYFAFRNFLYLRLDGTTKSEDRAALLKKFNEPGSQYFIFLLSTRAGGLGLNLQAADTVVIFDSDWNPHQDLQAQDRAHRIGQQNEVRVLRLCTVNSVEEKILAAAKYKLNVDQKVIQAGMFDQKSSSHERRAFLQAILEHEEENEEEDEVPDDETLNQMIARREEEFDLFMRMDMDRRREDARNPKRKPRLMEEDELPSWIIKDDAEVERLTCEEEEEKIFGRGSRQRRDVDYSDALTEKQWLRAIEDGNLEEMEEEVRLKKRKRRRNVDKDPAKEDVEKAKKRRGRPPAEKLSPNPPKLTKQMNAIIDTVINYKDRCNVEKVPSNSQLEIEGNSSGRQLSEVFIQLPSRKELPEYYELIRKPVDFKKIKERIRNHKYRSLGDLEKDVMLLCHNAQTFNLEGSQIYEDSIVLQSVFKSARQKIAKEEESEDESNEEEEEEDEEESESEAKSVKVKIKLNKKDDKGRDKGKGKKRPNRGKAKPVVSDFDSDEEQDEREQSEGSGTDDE

With `CCN(C(=O)C1(c2ccccc2)CCN(c2cnnc(-c3ccccc3O)c2)CC1)C1CCN(C(=O)CN2CCN(c3ccc(C4CCC(=O)NC4=O)cc3)CC2)CC1` (racemic) [Example 185, rac-N-{1-[2-(4-{4-[(3R)-2,6-dioxopiperidin-3-yl]phenyl}piperazin-1-yl)acetyl]piperidin-4-yl}-N-ethyl-1-[6-(2-hydroxyphenyl)pyridazin-4-yl]-4-phenylpiperidine-4-carboxamide], at SMARCA2, the DC50 turned out to be 7.13 nM, the Dmax was found to be 88.8% and the “Fold Selectivity SMARCA4/2” value was determined as 20. At SMARCA4, this compound came in with a DC50 of 143 nM and a Dmax of 58.5%.
As for `O=C1CCC(c2ccc(N3CCN(C(=O)CCCN4CCN(C(=O)C5(c6ccccc6)CCN(c6cnnc(-c7ccccc7O)c6)CC5)CC4)CC3)cc2)C(=O)N1` (racemic) [Example 22, rac-(3R)-3-(4-{4-[4-(4-{1-[6-(2-hydroxyphenyl)pyridazin-4-yl]-4-phenylpiperidine-4-carbonyl}piperazin-1-yl)butanoyl]piperazin-1-yl}phenyl)piperidine-2,6-dione], on SMARCA2, the Dmax worked out at 30.5% and the “Fold Selectivity SMARCA4/2” value is recorded as 1. This compound showed a Dmax at SMARCA4 of 20.6%.
In the case of `CN(C(=O)CN1CCN(c2ccc([C@H]3CCC(=O)NC3=O)cc2)CC1)[C@H]1CC[C@H](NC(=O)C2(Oc3ccccc3)CCN(c3cnnc(-c4ccccc4O)c3)CC2)CC1` (racemic) [Example 173, 1-[6-(2-hydroxyphenyl)pyridazin-4-yl]-4-phenoxy-N-[(1r,4r)-4-[2-(4-{4-[(3R)-2,6-dioxopiperidin-3-yl]phenyl}piperazin-1-yl)-N-methylacetamido]cyclohexyl]piperidine-4-carboxamide], at SMARCA2, the DC50 is 44.9 nM, the Dmax came to 62% and the “Fold Selectivity SMARCA4/2” value was found to be 223. At SMARCA4, this compound came in with a Dmax of 39.8%.
On to `Cc1ccnn1C1(C(=O)N(C)C2CCN(CCC3CCN(c4cccc5c4n(C)c(=O)n5C4CCC(=O)NC4=O)CC3)CC2)CCN(c2cnnc(-c3ccccc3O)c2)CC1` (racemic) [Example 61, rac-N-{1-[2-(1-{1-[(3R)-2,6-dioxopiperidin-3-yl]-3-methyl-2-oxo-2,3-dihydro-1H-1,3-benzodiazol-4-yl}piperidin-4-yl)ethyl]piperidin-4-yl}-1-[6-(2-hydroxyphenyl)pyridazin-4-yl]-n-methyl-4-(5-methyl-1H-pyrazol-1-yl)piperidine-4-carboxamide], for which, at SMARCA2, half-maximal degradation (DC50) was put at 0.18 nM, the Dmax is 96.7% and the “Fold Selectivity SMARCA4/2” value stood at 19. On SMARCA4, this compound displayed a DC50 of 3.49 nM and a maximal degradation (Dmax) of 86.8%.
`Cn1ccc(C2(C(=O)N3CC4(CN(CC5CCN(c6ccc(C7CCC(=O)NC7=O)cc6)CC5)C4)C3)CCN(c3cnnc(-c4ccccc4O)c3)CC2)n1` (racemic) [Example 54, rac-(R)-3-(4-(4-((6-(1-(6-(2-hydroxyphenyl)pyridazin-4-yl)-4-(1-methyl-1H-pyrazol-3-yl)piperidine-4-carbonyl)-2,6-diazaspiro[3.3]heptan-2-yl)methyl)piperidin-1-yl)phenyl)piperidine-2,6-dione]: at SMARCA2, it took 6.7 nM to reach half-maximal degradation (DC50), the Dmax came to 80.5% and the “Fold Selectivity SMARCA4/2” value came to 8.74. On SMARCA4, the DC50 was 58.6 nM and the Dmax is 56.8%.
Turning to `O=C1CCC(c2ccc(N3CCC(CN4CC5(C4)CN(C(=O)C4(c6ccc(Cl)c(Cl)c6)CCN(c6cnnc(-c7ccccc7O)c6)CC4)C5)CC3)cc2)C(=O)N1` (racemic) [Example 32, rac-(3R)-3-{4-[4-({6-[4-(3,4-dichlorophenyl)-1-[6-(2-hydroxyphenyl)pyridazin-4-yl]piperidine-4-carbonyl]-2,6-diazaspiro[3.3]heptan-2-yl}methyl)piperidin-1-yl]phenyl}piperidine-2,6-dione], on SMARCA2, it took 71.7 nM to reach half-maximal degradation (DC50), the Dmax amounted to 63% and the “Fold Selectivity SMARCA4/2” value is reported as 139.55. At SMARCA4, this compound came in with a Dmax of 37.2%.
On the same counts, the results for `CC(C)c1cc(C2(C(=O)N(C)C3CCN(C4COC5(CCN(c6ccc([C@H]7CCC(=O)NC7=O)cc6)CC5)C4)CC3)CCN(c3cnnc(-c4ccccc4O)c3)CC2)no1` (mixture of isomers) [Example 59, N-{1-[(3RS)-8-{4-[(3R)-2,6-dioxopiperidin-3-yl]phenyl}-1-oxa-8-azaspiro[4.5]decan-3-yl]piperidin-4-yl}-1-[6-(2-hydroxyphenyl)pyridazin-4-yl]-N-methyl-4-[5-(propan-2-yl)-1,2-oxazol-3-yl]piperidine-4-carboxamide] are 11.9 nM, 72.8%, 842 and 26%.
Regarding `O=C1CCC(c2c(F)cc(N3CCC(CN4CCC5(CC4)CN(C(=O)C4(Oc6ccccc6)CCN(c6cnnc(-c7ccccc7O)c6)CC4)C5)CC3)cc2F)C(=O)N1` (racemic) [Example 136, rac-(3R)-3-(2,6-difluoro-4-{4-[(2-{1-[6-(2-hydroxyphenyl)pyridazin-4-yl]-4-phenoxypiperidine-4-carbonyl}-2,7-diazaspiro[3.5]nonan-7-yl)methyl]piperidin-1-yl}phenyl)piperidine-2,6-dione], on SMARCA2, it took 2.1 nM to reach half-maximal degradation (DC50), the Dmax is 94% and the “Fold Selectivity SMARCA4/2” value stood at 8. On SMARCA4, this compound gave a DC50 of 17.8 nM and a Dmax of 84.2%.
On the same counts, the results for `O=C1CCC(c2ccc(N3CCC(CN4CC5(C4)CN(C(=O)C4(c6ccccc6)CCN(c6cnnc(-c7ccccc7O)c6)CC4)C5)CC3)c(F)c2F)C(=O)N1` (racemic) [Example 138, rac-(3R)-3-(2,3-difluoro-4-{4-[(6-{1-[6-(2-hydroxyphenyl)pyridazin-4-yl]-4-phenylpiperidine-4-carbonyl}-2,6-diazaspiro[3.3]heptan-2-yl)methyl]piperidin-1-yl}phenyl)piperidine-2,6-dione] are 4.09 nM, 89%, 9, 38.3 nM and 67.1%.
For `COc1cccc(C2(C(=O)N(C)C3CCN(CCC4CCN(c5ccc([C@H]6CCC(=O)NC6=O)cc5)CC4)CC3)CCN(c3cnnc(-c4ccccc4O)c3)CC2)c1` [Example 139, N-{1-[2-(1-{4-[(3R)-2,6-dioxopiperidin-3-yl]phenyl}piperidin-4-yl)ethyl]piperidin-4-yl}-1-[6-(2-hydroxyphenyl)pyridazin-4-yl]-4-(3-methoxyphenyl)-N-methylpiperidine-4-carboxamide], on SMARCA2, the DC50 is 4.55 nM, the Dmax is 89.2% and the “Fold Selectivity SMARCA4/2” value turned out to be 37. At SMARCA4, the DC50 was 167 nM and the Dmax came out at 54%.
Consider `N#CC1(CN2CCN(c3ccc([C@@H]4CCC(=O)NC4=O)cc3)CC2)CC12CCN(C(=O)C1(c3ccccc3)CCN(c3cnnc(-c4ccccc4O)c3)CC1)CC2` (mixture of isomers) [Example 171, rac-1-[(4-{4-[(3R)-2,6-dioxopiperidin-3-yl]phenyl}piperazin-1-yl)methyl]-6-{1-[6-(2-hydroxyphenyl)pyridazin-4-yl]-4-phenylpiperidine-4-carbonyl}-6-azaspiro[2.5]octane-1-carbonitrile], for which, on SMARCA2, the DC50 was found to be 28.5 nM, the Dmax amounted to 69.5% and the “Fold Selectivity SMARCA4/2” value turned out to be 35. In addition, on SMARCA4, the DC50 came to 1000 nM and the Dmax amounted to 41.4%.
As to `O=C1CC[C@H](c2ccc(N3CCC(CN4CC5(C4)CN(C(=O)C4(Oc6ccccc6Cl)CCN(c6cnnc(-c7ccccc7O)c6)CC4)C5)CC3)cc2)C(=O)N1` [Example 119, (r)-3-(4-(4-((6-(4-(2-chlorophenoxy)-1-(6-(2-hydroxyphenyl)pyridazin-4-yl)piperidine-4-carbonyl)-2,6-diazaspiro[3.3]heptan-2-yl)methyl)piperidin-1-yl)phenyl)piperidine-2,6-dione], on SMARCA2, the DC50 amounted to 3.52 nM, the Dmax was determined as 89.2% and the “Fold Selectivity SMARCA4/2” value came out at 6. At SMARCA4, this compound registered a DC50 of 20.3 nM and a Dmax of 79.4%.
Turning to `O=C1CC[C@H](c2ccc(N3CCC(C(=O)N4CCC5(CC4)CN(CC4(c6ccccc6)CCN(c6cnnc(-c7ccccc7O)c6)CC4)C5)CC3)cc2)C(=O)N1` [Example 164, (3R)-3-(4-{4-[2-({1-[6-(2-hydroxyphenyl)pyridazin-4-yl]-4-phenylpiperidin-4-yl}methyl)-2,7-diazaspiro[3.5]nonane-7-carbonyl]piperidin-1-yl}phenyl)piperidine-2,6-dione], on SMARCA2, the DC50 came to 2.16 nM, the Dmax came to 85% and the “Fold Selectivity SMARCA4/2” value was 2. At SMARCA4, this compound gave a DC50 of 3.77 nM and a Dmax of 86.6%.
Consider `O=C1CCC(c2ccc(C3CCN(CC(=O)N4CC5(C4)CN(C(=O)C4(Oc6ccccc6Cl)CCN(c6cnnc(-c7ccccc7O)c6)CC4)C5)CC3)cc2)C(=O)N1` (racemic) [Example 113, rac-(r)-3-(4-(1-(2-(6-(4-(2-chlorophenoxy)-1-(6-(2-hydroxyphenyl)pyridazin-4-yl)piperidine-4-carbonyl)-2,6-diazaspiro[3.3]heptan-2-yl)-2-oxoethyl)piperidin-4-yl)phenyl)piperidine-2,6-dione], for which, on SMARCA2, the DC50 was 9.76 nM, the Dmax came out at 83.6% and the “Fold Selectivity SMARCA4/2” value came to 9. Further, on SMARCA4, the DC50 came to 87.4 nM and the Dmax came out at 63.4%.
In the case of `CN(C(=O)C1(OC2CC2)CCN(c2cnnc(-c3ccccc3O)c2)CC1)C1CCN(CCC2CCN(c3ccc([C@H]4CCC(=O)NC4=O)c(F)c3)CC2)CC1` (racemic) [Example 70, rac-(r)-4-cyclopropoxy-n-(1-(2-(1-(4-(2,6-dioxopiperidin-3-yl)-3-fluorophenyl)piperidin-4-yl)ethyl)piperidin-4-yl)-1-(6-(2-hydroxyphenyl)pyridazin-4-yl)-n-methylpiperidine-4-carboxamide], on SMARCA2, the DC50 amounted to 8.6 nM, the Dmax is 81.4% and the “Fold Selectivity SMARCA4/2” value worked out at 1163. Further, the Dmax on SMARCA4 worked out at 35.1%.
